What was measured:
[1] = system: Hs578T; test: Wound healing migration assay; type: cell-based; details: Homo sapiens, Hs-578T; HS578T cell line; Table Ib
How it was run: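 Compound exposure at 12.5, 6.25 and 3.125 μM, with DMSO control, on scratch-wounded monolayers (150000 cells/24 well, overnight). Wound closure imaged by microscopy, fixed with crystal violet after 48 h or 72 h depending on cell line; IC50 is the concentration giving 50% wound size between t0 and t48/t72.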

[2] = target: T1, wild type AXL (wtAXL) receptor tyrosine kinase (Homo sapiens, UniProt P30530); test: NIH-3T3-AXL cellular kinase assay (pY-AXL-ELISA); type: cell-based; details: NIH-3T3-AXL (clone 22) cells, serum depleted, compounds 1 h; Table Ia
T1 construct: WtAXL cDNA was cloned into vector pLXSN(ESK) and transfected into Phoenix E packaging cells; expressed in transfected cells; host or cells: NIH3T3 N7 (mouse fibroblasts), retrovirally infected, clone 22
T1 sequence (P30530 26-894): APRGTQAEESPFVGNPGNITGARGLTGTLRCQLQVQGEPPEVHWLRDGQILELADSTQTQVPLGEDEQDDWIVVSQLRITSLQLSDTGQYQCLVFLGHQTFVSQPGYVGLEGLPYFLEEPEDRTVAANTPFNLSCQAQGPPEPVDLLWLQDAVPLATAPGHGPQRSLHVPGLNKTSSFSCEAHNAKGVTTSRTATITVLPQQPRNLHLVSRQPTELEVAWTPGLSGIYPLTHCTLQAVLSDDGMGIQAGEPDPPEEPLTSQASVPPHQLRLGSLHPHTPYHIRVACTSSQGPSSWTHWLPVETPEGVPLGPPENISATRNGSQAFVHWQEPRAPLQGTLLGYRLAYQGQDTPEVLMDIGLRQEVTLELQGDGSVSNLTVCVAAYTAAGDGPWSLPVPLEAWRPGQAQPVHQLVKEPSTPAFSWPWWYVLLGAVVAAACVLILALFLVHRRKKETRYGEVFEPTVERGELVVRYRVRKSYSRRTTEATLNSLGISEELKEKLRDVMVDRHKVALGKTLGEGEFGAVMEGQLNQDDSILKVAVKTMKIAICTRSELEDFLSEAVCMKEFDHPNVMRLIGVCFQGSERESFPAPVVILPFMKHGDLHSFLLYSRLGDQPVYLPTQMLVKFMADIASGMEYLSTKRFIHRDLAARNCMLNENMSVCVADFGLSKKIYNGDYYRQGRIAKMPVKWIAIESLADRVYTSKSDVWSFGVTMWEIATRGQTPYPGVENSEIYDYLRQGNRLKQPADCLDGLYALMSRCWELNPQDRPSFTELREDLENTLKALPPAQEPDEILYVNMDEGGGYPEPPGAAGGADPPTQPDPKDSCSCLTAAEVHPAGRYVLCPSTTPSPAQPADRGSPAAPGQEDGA
How it was run: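 Phospho-AXL was quantified by ELISA in lysates (4G10-biotin, streptavidin-AP, AttoPhos, 430/560 nm read at 90 min). The cells were monoclonal NIH3T3 lines stably transduced with human wtAXL, exposed to serial compound dilutions for 1 h before lysis.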

[3] = system: Hs578T; test: Matrigel outgrowth assay/branching assay; type: cell-based; details: Homo sapiens, Hs-578T; HS578T cell line; Table Ib; read-out: Total branching inhibition in Matrigel HS578T
How it was run: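 Invasive outgrowth into a 3 mg/ml Matrigel gel is judged from images taken after 48, 72 and 96 h of exposure to 3.125, 1.56 or 0.78 μM compound, with DMSO as control. Positive means total inhibition of branching.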

[4] = system: Hs578T; test: Cell vitality assay (ATP assay, CellTiter-Glo); type: cell-based; details: Homo sapiens, Hs-578T; HS578T cell line, 72 h; Table Ib; read-out: IC50 ATP-Assay HS578T after 72 h
How it was run: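 ATP-based luminescence (CellTiter-Glo) after 72 h exposure of 1000 cells/well to seven compound concentrations from 0.195 to 12.5 μM. IC50 defined as concentration reducing ATP to 50% of DMSO control.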

| melting point [°C] | IC50 [1] [µM] | IC50 [2] [µM] | SMILES | IC50 [3] [µM] | IC50 [4] [µM] |
| --- | --- | --- | --- | --- | --- |
| 175 to 176 | 12.5 to 50 | 0.5 to 3 | COc1ccc2nccc(Oc3ccc(NS(=O)(=O)c4ccccc4OC(F)(F)F)cc3F)c2c1 [Example 202, N-[3-Fluoro-4-(6-methoxy-quinolin-4-yloxy)-phenyl]-2-trifluoromethoxy-benzenesulfonamide] | 10 to 25 | 12.5 to 50 |
| 131 to 132 | ≤ 12.5 | < 0.5 | COc1cc2c(Oc3ccc(NS(=O)(=O)c4c(Cl)csc4Cl)cc3F)ccnc2cc1OCCCN1CCCCC1C (stereo not shown) [Example 146, 2,4-Dichloro-thiophene-3-sulfonic acid (3-fluoro-4-{6-methoxy-7-[3-(2-methyl-piperidin-1-yl)-propoxy]-quinolin-4-yloxy}-phenyl)-amide] | 10 to 25 | ≤ 12.5 |
| 174 to 176 | ≤ 12.5 | < 0.5 | COc1cc2c(Oc3ccc(NS(=O)(=O)c4ccsc4)cc3F)ccnc2cc1OCCCN1CCCC(C)C1 (stereo not shown) [Example 65, Thiophene-3-sulfonic acid (3-fluoro-4-{6-methoxy-7-[3-(3-methyl-piperidin-1-yl)-propoxy]-quinolin-4-yloxy}-phenyl)-amide] | 10 to 25 | ≤ 12.5 |
| 196 to 197 | 12.5 to 50 | < 0.5 | COc1cc2c(Oc3ccc(NS(=O)(=O)c4csc5ccccc45)cc3F)ccnc2cc1OCCCN1CCOCC1 [Example 114, Benzo[b]thiophene-3-sulfonic acid {3-fluoro-4-[6-methoxy-7-(3-morpholin-4-yl-propoxy)-quinolin-4-yloxy]-phenyl}-amide] | 10 to 25 | ≤ 12.5 |
| 170 to 171 | ≤ 12.5 | < 0.5 | COc1cc2c(Oc3ccc(NS(=O)(=O)c4ccccc4F)cc3Cl)ccnc2cc1OCCCN1CCN(C)CC1 [Example 111, N-(3-Chloro-4-{6-methoxy-7-[3-(4-methyl-piperazin-1-yl)-propoxy]-quinolin-4-yloxy}-phenyl)-2-fluoro-benzenesulfonamide] | ≤ 10 | ≤ 12.5 |
| 91 to 93 | ≤ 12.5 | 0.5 to 3 | COc1cc2c(Oc3cccc(NS(=O)(=O)c4csc5ccccc45)c3)ccnc2cc1OCCCN1CCN(C)CC1 [Example 136, Benzo[b]thiophene-3-sulfonic acid (3-{6-methoxy-7-[3-(4-methyl-piperazin-1-yl)-propoxy]-quinolin-4-yloxy}-phenyl)-amide] | ≤ 10 | ≤ 12.5 |
| 191 to 193 | ≤ 12.5 | 0.5 to 3 | COc1cc2c(Oc3ccc(NS(=O)(=O)c4c(F)cccc4F)cc3C)ccnc2cc1OCCCN1CCC(C)CC1 [Example 172, 2,6-Difluoro-N-(4-{6-methoxy-7-[3-(4-methyl-piperidin-1-yl)-propoxy]-quinolin-4-yloxy}-3-methyl-phenyl)-benzenesulfonamide] | ≤ 10 | ≤ 12.5 |
| 99 to 100 | ≤ 12.5 | < 0.5 | COc1cc2c(Oc3ccc(NS(=O)(=O)c4cccc(OC(F)F)c4)cc3F)ccnc2cc1OCCCN1CCCC(C)C1 (stereo not shown) [Example 43, 3-Difluoromethoxy-N-(3-fluoro-4-{6-methoxy-7-[3-(3-methyl-piperidin-1-yl)-propoxy]-quinolin-4-yloxy}-phenyl)-benzenesulfonamide] | ≤ 10 | ≤ 12.5 |
| 98 to 101 | ≤ 12.5 | < 0.5 | COc1cc2c(Oc3ccc(NS(=O)(=O)c4csc5ccccc45)cc3Cl)ccnc2cc1OCCCN1CCN(C)CC1 [Example 117, Benzo[b]thiophene-3-sulfonic acid (3-chloro-4-{6-methoxy-7-[3-(4-methyl-piperazin-1-yl)-propoxy]-quinolin-4-yloxy}-phenyl)-amide] | 10 to 25 | ≤ 12.5 |
| 98 to 101 | 12.5 to 50 | 0.5 to 3 | COc1cc2c(Oc3ccc(NS(=O)(=O)c4c(F)cccc4F)cc3OC)ccnc2cc1OCCCN1CCC(C)CC1 [Example 173, 2,6-Difluoro-N-(3-methoxy-4-{6-methoxy-7-[3-(4-methyl-piperidin-1-yl)-propoxy]-quinolin-4-yloxy}-phenyl)-benzenesulfonamide] | 10 to 25 | ≤ 12.5 |
| 128 to 130 | ≤ 12.5 | < 0.5 | COc1cc2c(Oc3ccc(NS(=O)(=O)c4cc(Cl)ccc4Cl)cc3F)ccnc2cc1OCCCN1CCCCC1C (stereo not shown) [Example 154, 2,5-Dichloro-N-(3-fluoro-4-{6-methoxy-7-[3-(2-methyl-piperidin-1-yl)-propoxy]-quinolin-4-yloxy}-phenyl)-benzenesulfonamide] | 10 to 25 | ≤ 12.5 |
| 185 to 187 | 12.5 to 50 | 0.5 to 3 | COc1cc2c(Oc3ccc(NS(=O)(=O)c4ccco4)cc3F)ccnc2cc1OCCCN(C)C [Example 185, Furan-2-sulfonic acid {4-[7-(3-dimethylamino-propoxy)-6-methoxy-quinolin-4-yloxy]-3-fluoro-phenyl}-amide] | 10 to 25 | ≤ 12.5 |
| 113 to 115 | 12.5 to 50 | < 0.5 | COc1cc2c(Oc3ccc(NS(=O)(=O)c4cccc(F)c4)cc3F)ccnc2cc1OCCCN1CCCC(C)C1 (stereo not shown) [Example 37, 3-Fluoro-N-(3-fluoro-4-{6-methoxy-7-[3-(3-methyl-piperidin-1-yl)-propoxy]-quinolin-4-yloxy}-phenyl)-benzenesulfonamide] | 10 to 25 | ≤ 12.5 |
| 119 to 121 | ≤ 12.5 | < 0.5 | COc1cc2c(Oc3ccc(NS(=O)(=O)c4c(Cl)csc4Cl)cc3F)ccnc2cc1OCCCN1CCCC(C)C1 (stereo not shown) [Example 64, 2,4-Dichloro-thiophene-3-sulfonic acid (3-fluoro-4-{6-methoxy-7-[3-(3-methyl-piperidin-1-yl)-propoxy]-quinolin-4-yloxy}-phenyl)-amide] | 10 to 25 | ≤ 12.5 |
| 99 to 101 | 12.5 to 50 | < 0.5 | COc1cc2c(Oc3ccc(NS(=O)(=O)c4ccc(C)s4)cc3F)ccnc2cc1OCCCN1CCCC(C)C1 (stereo not shown) [Example 62, 5-Methyl-thiophene-2-sulfonic acid (3-fluoro-4-{6-methoxy-7-[3-(3-methyl-piperidin-1-yl)-propoxy]-quinolin-4-yloxy}-phenyl)-amide] | 10 to 25 | ≤ 12.5 |
| 127 to 130 | ≤ 12.5 | 0.5 to 3 | COc1cc2c(Oc3cc(NS(=O)(=O)c4cc(Cl)ccc4Cl)ccc3F)ccnc2cc1OCCCN1CCC(C)CC1 [Example 191, 2,5-Dichloro-N-(4-fluoro-3-{6-methoxy-7-[3-(4-methyl-piperidin-1-yl)-propoxy]-quinolin-4-yloxy}-phenyl)-benzenesulfonamide] | 10 to 25 | ≤ 12.5 |
| 216 to 218 | 12.5 to 50 | < 0.5 | COc1cc2c(Oc3ccc(NS(=O)(=O)c4ccccc4C(F)(F)F)cc3OC)ccnc2cc1OCCCN1CCC(C)CC1 [Example 208, N-(3-Methoxy-4-{6-methoxy-7-[3-(4-methyl-piperidin-1-yl)-propoxy]-quinolin-4-yloxy}-phenyl)-2-trifluoromethyl-benzenesulfonamide] | 10 to 25 | ≤ 12.5 |
